The results in this text go back to article PMC10485906, “Development of a Dihydroquinoline–Pyrazoline GluN2C/2D-Selective Negative Allosteric Modulator of the N-Methyl-D-aspartate Receptor” (ACS Chemical Neuroscience, 2023).

Assay [1] has as its target T1, GluN1/GluN2B (Rattus norvegicus, UniProt P35439+Q00960).
T1 construct: GluN2B (NM_012574.1), GluN2C (NM_012575.3), and GluN2D (NM_022797.2) were provided by; expressed in transfected cells; host or cells: Xenopus laevis oocytes (cRNA injection)
Put plainly: Two-electrode voltage-clamp recordings, Xenopus laevis oocytes, GluN1/GluN2B. It is filed as cell-based. The following applies: 100 μM glutamate, 30 μM glycine; for IC50: read-out: IC50 GluN2B [95% CI]; for remaining activity at 30 µM: 30 μM test compound, mean ± SEM, read-out: I 30 μM / I control GluN2B. The protocol: (§1) All target compounds were evaluated for NMDAR antagonism using two-electrode voltage-clamp recordings from Xenopus laevis oocytes coexpressing recombinant GluN1 and GluN2A-D subunits (Table 1).[32],[42],[33] All analogues were assessed as either a racemic (2b, 2e–2r) or diastereomeric (2d) mixture to simplify purification and streamline in vitro analysis. […] Moreover, as illustrated by the significant loss of NMDAR activity observed with nitrile 2e, the DQP allosteric site necessitated an H-bond donor/acceptor relationship at the carboxylate position. […] The loss of NMDAR activity observed with the trifluoro analogue 2j (Table S1) reinforced the necessity for an H-bond donor/acceptor relationship to maintain allosteric binding and established that fluorine substitution alone is ineffective. […] A single methyl substitution of the amide in compound 2q improved selectivity against GluN2A and had similar potency as 2a, whereas dual methyl substitution reduced potency (2r). We expect that this is likely due to the ability of the […] of the amide to accept hydrogen bonds while the amide can readily donate a proton.
(§2) Unfertilized Xenopus laevis oocytes were obtained from Ecocyte (Austin, TX), or ovaries were purchased from Xenopus 1 (Dexter, MI) and oocytes prepared as previously described.[42],[47] Two-electrode voltage-clamp recordings were performed on oocytes expressing recombinant rat GluN1/GluN2A, GluN1/GluN2B, GluN1/GluN2C, or GluN1/GluN2D. cDNAs for rat GluN1-1a (referred to as GluN1; NCBI Reference Sequence NM_017010.2), GluN2A (NM_012573.4), GluN2B (NM_012574.1), GluN2C (NM_012575.3), and GluN2D (NM_022797.2) were provided by Dr. S. Heinemann from the Salk Institute, Dr. S. Nakanishi from Kyoto University, and Dr. P. Seeburg from the University of Heidelberg. Oocyte isolation, cRNA synthesis, and cRNA injections were performed as previously described.[32],[33],[47] Briefly, Xenopus laevis oocytes were injected with 5–10 ng of cRNA in RNase-free water with the GluN1:GluN2 ratio ranging from 1:1 to 1:5. Oocytes were incubated at 15–19 °C in Barth’s solution consisting of (in mM) 88 NaCl, 1 KCl, 2.4 NaHCO3, 10 HEPES, 0.82 MgSO4, 0.33 Ca(NO3)2, and 0.41 CaCl2 supplemented with 100 μg/mL gentamycin, 40 μg/mL streptomycin, and 50 μg/mL penicillin. Recordings were performed 2–4 days after injection with extracellular recording solution containing (in mM) 90 NaCl, 1 KCl, 10 HEPES, 0.5 BaCl2, and 0.01 EDTA at pH 7.4 adjusted with NaOH. To prevent a gradual increase in current response over the course of the experiment, some oocytes expressing GluN1/GluN2A were injected with 20–50 nL of 2–50 mM K-BAPTA. Concentration–response curves for test compounds were generated by applying a maximally effective concentration of glutamate (100 μM) and glycine (30 μM), followed by glutamate and glycine with variable concentrations of test compounds up to 30 μM. The test compounds were prepared as 20 mM stock solutions in DMSO and diluted to the final concentration in recording solution. The DMSO content was 0.05–0.5% (v/v). […] Methods for off-target analysis are given in the Supporting Information.
(§3) Confidence intervals were determined for the log(IC50). The time course of relaxation during inhibitor application or deactivation following rapid removal of NMDA or glutamate was fitted by the equation [drawing 5] 2
(Two-electrode voltage clamp holds a large cell at a set potential and records current.)

Assay [2] deals with T2, GluN1/GluN2B (Rattus norvegicus, UniProt Q00960).
T2 construct: GluN2B (NM_012574.1), GluN2C (NM_012575.3), and GluN2D (NM_022797.2) were provided by; expressed in transfected cells; host or cells: Xenopus laevis oocytes (cRNA injection)
T2 sequence (Q00960 27-1482, other chains not shown): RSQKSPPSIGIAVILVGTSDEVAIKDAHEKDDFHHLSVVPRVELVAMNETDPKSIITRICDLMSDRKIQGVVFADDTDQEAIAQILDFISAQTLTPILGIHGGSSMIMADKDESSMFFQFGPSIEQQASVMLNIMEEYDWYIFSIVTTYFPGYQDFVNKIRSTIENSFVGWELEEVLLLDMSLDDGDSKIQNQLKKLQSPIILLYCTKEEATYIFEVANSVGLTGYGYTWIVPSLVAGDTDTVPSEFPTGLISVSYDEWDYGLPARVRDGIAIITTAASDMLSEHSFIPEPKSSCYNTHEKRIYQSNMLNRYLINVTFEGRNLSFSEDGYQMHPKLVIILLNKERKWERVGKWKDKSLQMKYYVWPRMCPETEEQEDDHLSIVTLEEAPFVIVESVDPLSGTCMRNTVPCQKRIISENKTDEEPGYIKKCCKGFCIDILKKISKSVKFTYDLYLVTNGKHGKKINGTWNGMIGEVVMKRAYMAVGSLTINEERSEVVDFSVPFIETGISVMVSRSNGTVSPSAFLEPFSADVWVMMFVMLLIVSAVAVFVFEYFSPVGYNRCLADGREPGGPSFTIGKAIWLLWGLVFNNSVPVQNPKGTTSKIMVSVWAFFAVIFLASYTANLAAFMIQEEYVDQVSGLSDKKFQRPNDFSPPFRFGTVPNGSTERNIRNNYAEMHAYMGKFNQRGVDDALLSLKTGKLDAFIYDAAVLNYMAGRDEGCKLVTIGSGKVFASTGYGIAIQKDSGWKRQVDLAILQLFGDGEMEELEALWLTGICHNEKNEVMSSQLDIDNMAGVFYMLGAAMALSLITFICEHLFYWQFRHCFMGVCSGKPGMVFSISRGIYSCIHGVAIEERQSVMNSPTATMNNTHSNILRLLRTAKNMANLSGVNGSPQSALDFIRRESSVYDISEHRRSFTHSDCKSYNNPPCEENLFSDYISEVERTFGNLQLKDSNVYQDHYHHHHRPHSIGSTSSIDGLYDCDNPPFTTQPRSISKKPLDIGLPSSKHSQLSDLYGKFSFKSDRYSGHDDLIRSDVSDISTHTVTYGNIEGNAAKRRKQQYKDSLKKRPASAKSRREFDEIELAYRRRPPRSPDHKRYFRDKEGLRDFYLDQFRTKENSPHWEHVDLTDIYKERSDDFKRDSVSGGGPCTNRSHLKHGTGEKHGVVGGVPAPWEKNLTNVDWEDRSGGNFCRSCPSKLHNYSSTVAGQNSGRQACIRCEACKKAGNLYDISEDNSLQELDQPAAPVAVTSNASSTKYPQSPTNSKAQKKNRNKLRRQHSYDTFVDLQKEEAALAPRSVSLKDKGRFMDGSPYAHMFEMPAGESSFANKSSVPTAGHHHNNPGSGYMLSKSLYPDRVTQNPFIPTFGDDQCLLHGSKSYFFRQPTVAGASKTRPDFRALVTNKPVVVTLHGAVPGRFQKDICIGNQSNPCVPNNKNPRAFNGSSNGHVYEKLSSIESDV
The description is as above. The note with it: mean ± SEM; for I3 μM/Icontrol GluN2B: tested at 3 μM; for I3 μM/Icontrol GluN2B / I / I control GluN2B: 100 μM glutamate, 30 μM glycine; for I / I control GluN2B: tested at 10 μM (footnote b). In kind it is cell-based. The protocol:
as §1, §2, §3

“And” between values parts separate entries of the source, which are not always exact repeats. Equal values may be shown once. Marks after values point to notes of the source that are not given here.

T1 sequence (Q00960 27-1482, other chains not shown): as above

In the case of `O=C(O)CC(F)(F)C(=O)N1N=C(c2c(-c3ccc(Cl)cc3)c3ccccc3[nH]c2=O)CC1c1ccc(Cl)cc1` (stereo not shown) [2i], the concentration for half-maximal inhibition (IC50) (usually the concentration that inhibits the measured activity by half) on GluN1/GluN2B [1] was found to be 16 µM. The “I3 μM/Icontrol GluN2B” value is 78 ± 2.9% and 78 ± 2.9 ^b (2,10) % on GluN1/GluN2B [2]; 78 ± 2.9 (2, 10) % at GluN1/GluN2B [2] (listed as racemic 2i).
Turning to `NC(=O)CC(F)(F)C(=O)N1N=C(c2c(-c3ccc(Cl)cc3)c3ccccc3[nH]c2=O)CC1c1ccc(Cl)cc1` (stereo not shown) [2k], the 50% inhibitory concentration (IC50) on GluN1/GluN2B [1] came to 3.1 µM. The “I3 μM/Icontrol GluN2B” value at GluN1/GluN2B [2] is given as 28 ± 4.5 ^b (3,10) %.
Turning to `CCOC(=O)CC(F)(F)C(=O)N1N=C(c2c(-c3ccc(Cl)cc3)c3ccccc3[nH]c2=O)CC1c1ccc(Cl)cc1` (stereo not shown) [2l], the remaining activity at 30 µM at GluN1/GluN2B [1] is 97 ± 2%.
Still for that read-out and setting: as for `CC(C)OC(=O)CC(F)(F)C(=O)N1N=C(c2c(-c3ccc(Cl)cc3)c3ccccc3[nH]c2=O)CC1c1ccc(Cl)cc1` (stereo not shown) [2m], the figure is 88 ± 1.3%; as for `O=C(CC(F)(F)C(=O)N1N=C(c2c(-c3ccc(Cl)cc3)c3ccccc3[nH]c2=O)CC1c1ccc(Cl)cc1)OCC1CC1` (stereo not shown) [2n], 92 ± 2.1%.
`CC(C)(C)COC(=O)CC(F)(F)C(=O)N1N=C(c2c(-c3ccc(Cl)cc3)c3ccccc3[nH]c2=O)CC1c1ccc(Cl)cc1` (stereo not shown) [2o]: at GluN1/GluN2B [2], the “I / I control GluN2B” value is reported as 94 ± 1.0%.
With `O=C(CC(F)(F)C(=O)N1N=C(c2c(-c3ccc(Cl)cc3)c3ccccc3[nH]c2=O)CC1c1ccc(Cl)cc1)OCc1ccccc1` (stereo not shown) [2p], at GluN1/GluN2B [1], the remaining activity at 30 µM was 103 ± 2.1%.
As for `CNC(=O)CC(F)(F)C(=O)N1N=C(c2c(-c3ccc(Cl)cc3)c3ccccc3[nH]c2=O)CC1c1ccc(Cl)cc1` (stereo not shown) [2q], the half-inhibitory concentration (IC50) on GluN1/GluN2B [1] amounted to 20 µM. Moreover, the “I / I control GluN2B” value at GluN1/GluN2B [2] was 81 ± 8.7 ^b (3, 10) %.
Consider `CN(C)C(=O)CC(F)(F)C(=O)N1N=C(c2c(-c3ccc(Cl)cc3)c3ccccc3[nH]c2=O)CC1c1ccc(Cl)cc1` (stereo not shown) [2r], for which the “I / I control GluN2B” value at GluN1/GluN2B [2] is on record as 78 ± 4.2 ^b (4,22) %.
Take `O=C(O)CC(F)(F)C(=O)N1N=C(c2c(-c3ccc(Cl)cc3)c3ccccc3[nH]c2=O)C[C@H]1c1ccc(Cl)cc1` [(S)-(−)-2i]: the half-inhibitory concentration (IC50) on GluN1/GluN2B [1] was 16 µM. Besides, on GluN1/GluN2B [2] (1 µM compound, 100 µM glutamate, 30 µM glycine), the “% control GluN1/GluN2B” value is recorded as 90 ± 3.5%. Moreover, the “I3 μM/Icontrol GluN2B” value at GluN1/GluN2B [2] is 89 ± 6.2 (3, 18) %.
